From US7498404B2, “Compositions, methods and uses for a novel family of peptides” (priority 2004, dated 2009) come the findings set out here.

For assay [1], the target named is Module 8 A-domain protein (Brevibacillus texasporus, UniProt Q2VQ14). The experiment in a line: ATP-PPi exchange assay, Module 8 A-domain. The class given is biochemical. The following applies: 0.5 mM amino acid, 2 μM protein, 37° C., 15 min. The method, then: (§1) Cloning, overexpression, and purification of His10-tagged BT A-domain proteins. DNA fragments encoding the A-domains of the BT NRPS Modules 8, 5, 7, 4 and 2 (Bt8A, Bt5A, Bt7A, Bt4A and Bt2A) were PCR-amplified and the PCR products were inserted into the His10-tag recombinant protein expression vector pET16b (Novagen). The A-domain borders were determined as defined by (Konz, et al., 1999). The expression constructs were transformed into the E.coli BL21 -AI strain (Invitrogen). Transformants were grown in L-broth at 37° C. to an A600 of 0.6 and then induced with 1 mM IPTG (isopropyl-β-D-thiogalactopyranoside) plus 0.2% L-arabinose. The cells were allowed to grow for two additional hours at 30° C. before being harvested. Purification of the His10-tag recombinant proteins was achieved using the TALON metal affinity resins (BD Biosciences) under conditions recommended in the manual with modifications. Briefly, the E. coli cells were broken by sonication. Cell lysates were cleared by centrifugation at 25,000× g for one hour. […] Eluted proteins were dialyzed against a buffer (50 mM HEPES, pH 8.0, 100 mM sodium chloride, 10 mM magnesium chloride, and 1 mM EDTA) and then analyzed with SDS PAGE plus Coomassie Blue staining. […] Concentrations of the purified proteins were determined by using the calculated molar extinction coefficient for the A280.
(§2) ATP-PPi exchange assay. […] The charcoal/water suspension was added to a scintillation vial containing 5.0 ml of scintillation fluid, and the bound radioactivity was determined by liquid scintillation counting. […]
(§3) Since a purified recombinant A-domain of an NRPS module can selectively and efficiently activate the cognate amino acid substrate of the NRPS module in an ATP-PPi exchange assay (Konz, et al., 1999; Mootz & Marahiel, 1997), ATP-PPi exchange assays have been used to experimentally establish NRPS module specificities and novel NRPS codons. […] A-domain specificities were determined in ATP-PPi exchange and aa Km assays (see Methods and Materials), and the results are shown in FIG. 5. […]

Assay [2] deals with Module 5 A-domain protein (Brevibacillus texasporus, UniProt Q2VQ15). The experiment in a line: ATP-PPi exchange assay, Module 5 A-domain. The class given is biochemical. The following applies: 0.5 mM amino acid, 0.2 μM protein, 37° C., 15 min. How it is done:
as §1, §2, §3

In assay [3] the target is Module 4 A-domain protein (Brevibacillus texasporus, UniProt Q2VQ15). The experiment in a line: ATP-PPi exchange assay, Module 4 A-domain. The format is biochemical. The settings on record: 0.5 mM amino acid, 0.2 μM protein, 37° C., 15 min. The method, then: as §1, §2, §3
Assay [4] concerns Module 2 A-domain protein. Briefly: ATP-PPi exchange assay, Module 2 A-domain. The settings on record: 0.5 mM amino acid, 37° C., 15 min. The format is biochemical, Brevibacillus texasporus. How it is done: Cloning, overexpression, and purification of His10-tagged BT A-domain proteins. DNA fragments encoding the A-domains of the BT NRPS Modules 8, 5, 7, 4 and 2 (Bt8A, Bt5A, Bt7A, Bt4A and Bt2A) were PCR-amplified and the PCR products were inserted into the His10-tag recombinant protein expression vector pET16b (Novagen). The A-domain borders were determined as defined by (Konz, et al., 1999). The expression constructs were transformed into the E.coli BL21 -AI strain (Invitrogen). Transformants were grown in L-broth at 37° C. to an A600 of 0.6 and then induced with 1 mM IPTG (isopropyl-β-D-thiogalactopyranoside) plus 0.2% L-arabinose. The cells were allowed to grow for two additional hours at 30° C. before being harvested. Purification of the His10-tag recombinant proteins was achieved using the TALON metal affinity resins (BD Biosciences) under conditions recommended in the manual with modifications. Briefly, the E. coli cells were broken by sonication. Cell lysates were cleared by centrifugation at 25,000× g for one hour. His-tagged recombinant proteins were then incubated with the TALON resin, washed, and eluted with 500 mM imidazole. Eluted proteins were dialyzed against a buffer (50 mM HEPES, pH 8.0, 100 mM sodium chloride, 10 mM magnesium chloride, and 1 mM EDTA) and then analyzed with SDS PAGE plus Coomassie Blue staining. […] Concentrations of the purified proteins were determined by using the calculated molar extinction coefficient for the A280.
ATP-PPi exchange assay. ATP-PPi exchange assays were performed to determine the substrate specificity of an A-domain. ATP-PPi exchanges were assayed as previously described (Stachelhaus, et al., 1998) with minor modifications. The assay mixture contained 50 mM HEPES (pH 8.0), 100 mM NaCl, 10 mM MgCl2, 2 mM ATP, 0.5 mM amino acid, 0.05 mM PPi, 0.15 μCi tetrasodium [^32P]pyrophosphate. Exchange was initiated by addition of purified recombinant A-domain proteins to a total volume of 0.1 ml. The protein concentrations were 0.2 μM for Module 4 and Module 5 A-domains while 2 μM for Module 7 and Module 8 A-domains. After incubation at 37° C. for 15 min, the reaction was stopped by addition of 0.5 ml of Termination Mix (100 mM tetrasodium pyrophosphate, 3.5% HClO4, and 1.6% [w/v] activated charcoal). The charcoal was pelleted by centrifugation, washed first with 40 mM pyrophosphate plus 1.4% perchloric acid and then with water, and was re-suspended in 0.5 ml of water. The charcoal/water suspension was added to a scintillation vial containing 5.0 ml of scintillation fluid, and the bound radioactivity was determined by liquid scintillation counting. The apparent Km values were determined with substrate concentrations ranging from 0.1 to 10 mM.
Since a purified recombinant A-domain of an NRPS module can selectively and efficiently activate the cognate amino acid substrate of the NRPS module in an ATP-PPi exchange assay (Konz, et al., 1999; Mootz & Marahiel, 1997), ATP-PPi exchange assays have been used to experimentally establish NRPS module specificities and novel NRPS codons. Recombinant A-domains of Modules 8, 5, 7 ,4 and 2 of the BT NRPS were produced and purified as described in Methods and Materials. Almost completely soluble recombinant A-domain proteins were obtained. A-domain specificities were determined in ATP-PPi exchange and aa Km assays (see Methods and Materials), and the results are shown in FIG. 5. […]

Assay [5] addresses T1, Module 7 A-domain protein (Brevibacillus texasporus, UniProt Q2VQ15).
T1 sequence (Q2VQ15 3560-4063): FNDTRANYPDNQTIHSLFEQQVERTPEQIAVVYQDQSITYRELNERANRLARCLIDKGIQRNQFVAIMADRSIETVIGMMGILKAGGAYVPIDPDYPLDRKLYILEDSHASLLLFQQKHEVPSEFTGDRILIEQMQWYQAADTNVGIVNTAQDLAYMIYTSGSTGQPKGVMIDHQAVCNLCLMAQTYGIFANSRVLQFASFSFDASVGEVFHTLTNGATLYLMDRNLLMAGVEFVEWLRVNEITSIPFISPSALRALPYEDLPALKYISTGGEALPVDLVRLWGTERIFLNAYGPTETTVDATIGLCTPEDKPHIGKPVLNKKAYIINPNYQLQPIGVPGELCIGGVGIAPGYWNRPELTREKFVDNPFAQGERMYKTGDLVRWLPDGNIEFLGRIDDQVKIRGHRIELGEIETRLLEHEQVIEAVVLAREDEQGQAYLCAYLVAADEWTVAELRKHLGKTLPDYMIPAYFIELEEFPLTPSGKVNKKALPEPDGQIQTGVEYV
Briefly: ATP-PPi exchange assay, Module 7 A-domain. The class given is biochemical. How it is done: as §1, with “harvested.” for “harvested. Purification of the His10-tag recombinant proteins was achieved using the TALON metal affinity resins (BD Biosciences) under conditions recommended in the manual with modifications. Briefly, the E. coli cells were broken by sonication. Cell lysates were cleared by centrifugation at 25,000× g for one hour.”
as §2

Sequence of Module 5 A-domain protein (Q2VQ15 entry or part of it): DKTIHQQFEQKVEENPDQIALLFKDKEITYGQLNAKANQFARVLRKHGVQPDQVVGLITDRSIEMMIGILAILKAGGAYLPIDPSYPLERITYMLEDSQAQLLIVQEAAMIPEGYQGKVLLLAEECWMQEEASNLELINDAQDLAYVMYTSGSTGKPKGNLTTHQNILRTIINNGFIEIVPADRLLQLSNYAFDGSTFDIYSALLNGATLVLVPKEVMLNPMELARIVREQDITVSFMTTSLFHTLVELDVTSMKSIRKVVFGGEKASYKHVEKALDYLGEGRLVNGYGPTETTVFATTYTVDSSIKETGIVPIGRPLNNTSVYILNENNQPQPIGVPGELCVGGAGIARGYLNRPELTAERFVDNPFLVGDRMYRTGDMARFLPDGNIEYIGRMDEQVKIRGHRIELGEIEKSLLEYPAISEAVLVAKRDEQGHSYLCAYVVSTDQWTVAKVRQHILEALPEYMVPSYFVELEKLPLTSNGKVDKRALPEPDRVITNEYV
Sequence of Module 8 A-domain protein (Q2VQ14 entry or part of it): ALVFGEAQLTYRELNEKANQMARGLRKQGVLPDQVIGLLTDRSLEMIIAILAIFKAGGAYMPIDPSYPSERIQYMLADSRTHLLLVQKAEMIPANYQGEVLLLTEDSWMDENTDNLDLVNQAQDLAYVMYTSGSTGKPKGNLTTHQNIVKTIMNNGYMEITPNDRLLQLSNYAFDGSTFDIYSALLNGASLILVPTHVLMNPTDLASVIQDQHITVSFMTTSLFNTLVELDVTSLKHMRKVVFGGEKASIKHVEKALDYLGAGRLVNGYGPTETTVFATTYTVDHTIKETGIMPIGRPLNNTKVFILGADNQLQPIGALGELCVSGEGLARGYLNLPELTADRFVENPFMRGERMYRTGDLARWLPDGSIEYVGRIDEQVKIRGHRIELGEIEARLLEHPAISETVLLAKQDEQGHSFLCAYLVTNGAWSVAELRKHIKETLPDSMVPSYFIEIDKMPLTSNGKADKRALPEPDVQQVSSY
Sequence of Module 4 A-domain protein (Q2VQ15 entry or part of it): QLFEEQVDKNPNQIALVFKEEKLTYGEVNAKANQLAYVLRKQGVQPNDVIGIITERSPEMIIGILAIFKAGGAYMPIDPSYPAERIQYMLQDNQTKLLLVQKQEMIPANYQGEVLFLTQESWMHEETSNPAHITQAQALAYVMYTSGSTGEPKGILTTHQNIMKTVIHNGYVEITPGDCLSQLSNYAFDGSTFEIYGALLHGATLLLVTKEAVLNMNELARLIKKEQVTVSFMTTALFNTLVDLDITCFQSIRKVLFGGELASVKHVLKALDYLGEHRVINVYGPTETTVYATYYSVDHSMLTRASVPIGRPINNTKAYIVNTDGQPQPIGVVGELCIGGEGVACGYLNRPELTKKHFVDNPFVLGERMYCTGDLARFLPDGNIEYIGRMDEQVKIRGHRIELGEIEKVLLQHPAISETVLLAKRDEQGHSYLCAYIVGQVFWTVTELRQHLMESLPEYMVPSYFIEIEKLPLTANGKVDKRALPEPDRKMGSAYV

Take `CC[C@H](C)[C@H](N)C(=O)O` [L-Ile]: the “relative substrate activation (highest activity defined as 100%)” value in assay [1] was found to be 4%; in assay [2] it was 23%; in assay [3] it was 100%; in assay [4] it was 19%.

In the case of `CC(C)C[C@H](N)C(=O)O` [L-Leu], the “relative substrate activation (highest activity defined as 100%)” value in assay [2] came out at 17%; in assay [3], 7%; in assay [4], 98%.

What is called Km is the substrate concentration at which the rate is half of its maximum. Take `NCCCC[C@H](N)C(=O)O` [L-Lys]: the “relative substrate activation (highest activity defined as 100%)” value in assay [1] came to 10%. In assay [5] (0.5 mM amino acid, 2 μM protein, 20 proteinogenic amino acids and L-Orn tested), the substrate activation result is “only amino acid that activated”. In assay [5] (substrate 0.1 to 10 mM, read-out: apparent Km), the Michaelis constant (Km) stood at 1120 µM.

For the compound `CSCC[C@H](N)C(=O)O` [L-Met], in assay [4], the “relative substrate activation (highest activity defined as 100%)” value was found to be 100%.

`N[C@@H](Cc1ccccc1)C(=O)O` [L-Phe]: the “relative substrate activation (highest activity defined as 100%)” value in assay [4] is 3.5%.
